Columns and labels:
[1] = tested on: single shoots of Swietenia macrophylla; assay: Rooting conditions (2): modified MS medium for 3 months; type: cell-based
Protocol: (§1) A large number of shoots obtained in (4) were cut to single shoots which were cultured in the following procedures:
(2) The single shoots were cultured on a modified MS medium containing 0 to 10.0 mg/l of IBA for 3 months, while transplanting the shoots to a fresh medium of the same composition every month.
(§2) All the above (1)-(4) cultures were conducted under conditions wherein a temperature was 26±2° C., a humidity was 60 to 90% and a light intensity was 3,000 to 9,000 Lux. Further, all the modified media in the above (1)-(4) contained 2.8 g/l of gelright.

[2] = tested on: single shoots of Swietenia macrophylla; assay: Rooting conditions (3): modified MS, then modified B5, then modified MS, one month each; type: cell-based; conditions: for Rooting rate (%) For first one month / Rooting rate (%) For second one month / Rooting rate (%) For third one month / Withering rate (%) For first one month / Withering rate (%) For second one month / Withering rate (%) For third one month: rooting conditions (3)
Protocol: as §1
(3) The single shoots were cultured on a modified MS medium containing 0 to 10.0 mg/l of IBA for one month, then on a modified B5 medium containing 0 to 10.0 mg/l of IBA for one month and further on a modified MS medium containing 0 to 10.0 mg/l of IBA for one month.
as §2

O=C(O)CCCc1c[nH]c2ccccc12 [IBA, 3-indole butyric acid]
Rooting rate (%) For second one month ([1]; IBA 3.0 mg/l): 3.7%
Rooting rate (%) For third one month ([1]; IBA 3.0 mg/l): 11.1%
Withering rate (%) For first one month ([1]; IBA 3.0 mg/l): 0.0%
Withering rate (%) For second one month ([1]; IBA 3.0 mg/l): 55.6%
Withering rate (%) For third one month ([1]; IBA 3.0 mg/l): 70.4%
Rooting rate (%) For first one month ([1]; IBA 4.0 mg/l): 0.0%
Rooting rate (%) For second one month ([1]; IBA 4.0 mg/l): 0.0%
Rooting rate (%) For third one month ([1]; IBA 4.0 mg/l): 0.0%
Withering rate (%) For first one month ([1]; IBA 4.0 mg/l): 10.3%
Withering rate (%) For second one month ([1]; IBA 4.0 mg/l): 58.6%
Withering rate (%) For third one month ([1]; IBA 4.0 mg/l): 96.6%
Rooting rate (%) For first one month ([1]; IBA 5.0 mg/l): 0.0%
Rooting rate (%) For second one month ([1]; IBA 5.0 mg/l): 0.0%
Rooting rate (%) For third one month ([1]; IBA 5.0 mg/l): 0.0%
Withering rate (%) For first one month ([1]; IBA 5.0 mg/l): 46.2%
Withering rate (%) For second one month ([1]; IBA 5.0 mg/l): 76.9%
Withering rate (%) For third one month ([1]; IBA 5.0 mg/l): 100.0%
Rooting rate (%) For first one month ([1]; IBA 10.0 mg/l): 0.0%
Rooting rate (%) For second one month ([1]; IBA 10.0 mg/l): 0.0%
Rooting rate (%) For third one month ([1]; IBA 10.0 mg/l): 0.0%
Withering rate (%) For first one month ([1]; IBA 10.0 mg/l): 65.4%
Withering rate (%) For second one month ([1]; IBA 10.0 mg/l): 80.8%
Withering rate (%) For third one month ([1]; IBA 10.0 mg/l): 100.0%
effectiveness versus continuous culture on a single kind of medium ([2]; 2.5 mg/l of IBA, modified MS, modified B5, modified MS, one month each): more effective
effectiveness for rooting ([2]; 2.5 mg/l of IBA, procedure (3)): particularly effective
Rooting rate (%) For first one month ([2]; IBA 0.1 mg/l): 0.0%
Rooting rate (%) For second one month ([2]; IBA 0.1 mg/l): 0.0%
Rooting rate (%) For third one month ([2]; IBA 0.1 mg/l): 0.0%
Withering rate (%) For first one month ([2]; IBA 0.1 mg/l): 7.7%
Withering rate (%) For second one month ([2]; IBA 0.1 mg/l): 73.1%
Withering rate (%) For third one month ([2]; IBA 0.1 mg/l): 84.6%
Rooting rate (%) For first one month ([2]; IBA 1.0 mg/l): 0.0%
Rooting rate (%) For second one month ([2]; IBA 1.0 mg/l): 10.0%
Rooting rate (%) For third one month ([2]; IBA 1.0 mg/l): 40.0%
Withering rate (%) For first one month ([2]; IBA 1.0 mg/l): 0.0%
Withering rate (%) For second one month ([2]; IBA 1.0 mg/l): 30.0%
Withering rate (%) For third one month ([2]; IBA 1.0 mg/l): 50.0%
Rooting rate (%) For first one month ([2]; IBA 2.0 mg/l): 0.0%
Rooting rate (%) For second one month ([2]; IBA 2.0 mg/l): 10.0%
Rooting rate (%) For third one month ([2]; IBA 2.0 mg/l): 40.0%
Withering rate (%) For first one month ([2]; IBA 2.0 mg/l): 0.0%
Withering rate (%) For second one month ([2]; IBA 2.0 mg/l): 30.0%
Withering rate (%) For third one month ([2]; IBA 2.0 mg/l): 40.0%
Rooting rate (%) For first one month ([2]; IBA 2.5 mg/l): 0.0%
Rooting rate (%) For second one month ([2]; IBA 2.5 mg/l): 40.0%
Rooting rate (%) For third one month ([2]; IBA 2.5 mg/l): 70.0%
Withering rate (%) For first one month ([2]; IBA 2.5 mg/l): 0.0%
Withering rate (%) For second one month ([2]; IBA 2.5 mg/l): 0.0%
Withering rate (%) For third one month ([2]; IBA 2.5 mg/l): 20.0%
Rooting rate (%) For first one month ([2]; IBA 3.0 mg/l): 0.0%
Rooting rate (%) For second one month ([2]; IBA 3.0 mg/l): 10.0%
Rooting rate (%) For third one month ([2]; IBA 3.0 mg/l): 30.0%
Withering rate (%) For first one month ([2]; IBA 3.0 mg/l): 0.0%
Withering rate (%) For second one month ([2]; IBA 3.0 mg/l): 50.0%
Withering rate (%) For third one month ([2]; IBA 3.0 mg/l): 50.0%
Rooting rate (%) For first one month ([2]; IBA 4.0 mg/l): 0.0%
Rooting rate (%) For second one month ([2]; IBA 4.0 mg/l): 0.0%
Rooting rate (%) For third one month ([2]; IBA 4.0 mg/l): 0.0%
Withering rate (%) For first one month ([2]; IBA 4.0 mg/l): 20.0%
Withering rate (%) For second one month ([2]; IBA 4.0 mg/l): 60.0%
Withering rate (%) For third one month ([2]; IBA 4.0 mg/l): 80.0%
Rooting rate (%) For first one month ([2]; IBA 5.0 mg/l): 0.0%
Rooting rate (%) For second one month ([2]; IBA 5.0 mg/l): 0.0%
Rooting rate (%) For third one month ([2]; IBA 5.0 mg/l): 0.0%
Withering rate (%) For first one month ([2]; IBA 5.0 mg/l): 40.0%
Withering rate (%) For second one month ([2]; IBA 5.0 mg/l): 50.0%
Withering rate (%) For third one month ([2]; IBA 5.0 mg/l): 100.0%
Rooting rate (%) For first one month ([2]; IBA 10.0 mg/l): 0.0%
Rooting rate (%) For second one month ([2]; IBA 10.0 mg/l): 0.0%
Rooting rate (%) For third one month ([2]; IBA 10.0 mg/l): 0.0%
Withering rate (%) For first one month ([2]; IBA 10.0 mg/l): 50.0%
Withering rate (%) For second one month ([2]; IBA 10.0 mg/l): 100.0%
Withering rate (%) For third one month ([2]; IBA 10.0 mg/l): 100.0%
single shoots rooted ([2]; procedure (3), 3 months after the start of culturing, 2.5 mg/l of IBA): 70.0%

— patent US6481154B1, “Method of large-scale propagation of trees of genus Swietenia” (Sumitomo Forestry Co., Ltd., priority 2000, dated 2002)
